The target of one test is T1, human IGF1R (Homo sapiens, UniProt P08069).
T1 construct: expressed in transfected cells; host or cells: R+ cells (R- mouse fibroblasts transfected with human IGF1R)
The test is described as follows: Inhibition of insulin-like growth factor-1 receptor phosphorylation in R+ cells. It is filed as cell-based. To be noted: 30 nM IGF1, read-out: IGF cell class. On the procedure:
This immunofluorescence end point cell assay measures the ability of a test compound to reduce the measured levels of IGF1R phosphorylation after IGF1 stimulation in R^+ cells. […] were derived by transfection of R^− mouse fibroblast cells with human IGF1R.
(+5% CO2) incubator for 30 minutes.
Following the compound treatment, the R^+ cells were stimulated with a final concentration of 30 nM IGF1 (Gropep 1M001) for 20 minutes at 37° C. […] Plates were incubated for 1 hour at room temperature. […] Additionally, in-house antibodies raised against phospho […] were also used at a suitable titre determined for each batch.
The plates were incubated at room temperature for one hour. […] After addition of 100 μl/well PBS the plates were sealed with a black seal.
The Green Fluorescent phospho IGF1R -associated signal in each well was measured using an Acumen Explorer HTS Reader (TTP Labtech Ltd., Cambridge). […] The instrument is a laser-scanning fluorescence microplate cytometer, which samples the well at regular intervals and uses threshold algorithms to identify all fluorescent intensities above the solution background without the need to generate and analyse an image. These fluorescent objects can be quantified and provide a measure of the phospho IGF1R levels in cells. Fluorescence dose response data obtained with each compound was exported into a suitable software package (such as Origin) to perform curve fitting analysis. Phospho-IGF1R levels in response to compound treatment versus stimulated and unstimulated controls were expressed as an IC50 value.

Another test addresses FGFR1 kinase (Homo sapiens, UniProt P11362). Kind of test: Kinase assay (using Caliper technology). It counts as biochemical. To be noted: FGFR1 kinase, Caliper; upper bound of bin; read-out: IC50. Here is the method:
To determine inhibition of FGFR activity, kinase assays were conducted using Caliper technology.
Kinase activity assays were performed in Greiner 384-well low volume plates, with a total reaction volume of 12ul per well. […] The substrate for each assay was a custom peptide with fluorescent tag (13 amino acids in length) the sequence of which was specific for FGFR1 kinase.
Compounds were serially diluted in 5% (v/v) DMSO, before being added to assay plates.
Assay plates were incubated at room temperature for 1.5 h, before the reaction was stopped with the addition of buffer [comprising: 100 mM HEPES—pH7.5, 0.033% Brij-35, 0.22% Caliper Coating Reagent #3, 88mM EDTA, 5% DMSO]. Stopped assay plates were then read using the Caliper LabChip® LC3000 (which uses microfludics to measure a shift in mobility between fluorescent labelled peptide and the FGFR1 kinase—phosphorylated form of this peptide).

A further test concerns the target T2, FGFR1 IIIc (Homo sapiens, UniProt P11362).
T2 construct: host or cells: Cos-1
Kind of test: Cell based inhibition of transiently expressed FGFR1 IIIc phosphorylation via use of ECHO technology (Cos-1 cells). To be noted: Cos-1 cells, phospho-FGFR1, ECHO dosing; upper bound of bin; read-out: IC50. Here is the method: This assay is designed to detect inhibitors of transiently expressed FGFR1 phosphorylation by antibody staining of fixed cells detected using ArrayScan technology.
To undertake the assay, Cos-1 cells were harvested at 90-95% confluence for cell transfection. For each 96-well plate, 24μl Lipofectamine 2000 was added to 809 ul OptiMEM and incubated at room temperature for 5 minutes. […] Equal volumes of DNA and Lipofectamine 2000 were combined (DNA: Lipid=1:1.2 ratio) and incubated at room temperature for 20 minutes.
The harvested Cos-1 cells are counted using a coulter counter and diluted further with 1% FCS/DMEM to 2.5×10^5 cells/ml. For each 96-well, 8.33 ml cells were required. […] 70 μl of media was aspirated from the assay plate using the Quadra before the plate was transferred onto the ECHO 550. […] Compound transfer to the assay plate on the ECHO 550 was at concentration ranges 1)10 μM, 2) 3 μM, 3) 1 μM, 4) 0.3 μM, 5) 0.1 μM, 6) […].
The plates were gently tapped to mix compound in with the cell media and left to incubate at 37° C. with 5% CO2 for 1 hour.
Media was removed from the wells using vacuum aspiration; cells were fixed by adding 50 μl of 100% methanol to each well and incubated at room temperature for 20 minutes.
The plates were read on an Arrayscan (Cellomics).

Where a name gives a salt, the structure may show the parent alone.

T1 sequence (P08069 31-1367): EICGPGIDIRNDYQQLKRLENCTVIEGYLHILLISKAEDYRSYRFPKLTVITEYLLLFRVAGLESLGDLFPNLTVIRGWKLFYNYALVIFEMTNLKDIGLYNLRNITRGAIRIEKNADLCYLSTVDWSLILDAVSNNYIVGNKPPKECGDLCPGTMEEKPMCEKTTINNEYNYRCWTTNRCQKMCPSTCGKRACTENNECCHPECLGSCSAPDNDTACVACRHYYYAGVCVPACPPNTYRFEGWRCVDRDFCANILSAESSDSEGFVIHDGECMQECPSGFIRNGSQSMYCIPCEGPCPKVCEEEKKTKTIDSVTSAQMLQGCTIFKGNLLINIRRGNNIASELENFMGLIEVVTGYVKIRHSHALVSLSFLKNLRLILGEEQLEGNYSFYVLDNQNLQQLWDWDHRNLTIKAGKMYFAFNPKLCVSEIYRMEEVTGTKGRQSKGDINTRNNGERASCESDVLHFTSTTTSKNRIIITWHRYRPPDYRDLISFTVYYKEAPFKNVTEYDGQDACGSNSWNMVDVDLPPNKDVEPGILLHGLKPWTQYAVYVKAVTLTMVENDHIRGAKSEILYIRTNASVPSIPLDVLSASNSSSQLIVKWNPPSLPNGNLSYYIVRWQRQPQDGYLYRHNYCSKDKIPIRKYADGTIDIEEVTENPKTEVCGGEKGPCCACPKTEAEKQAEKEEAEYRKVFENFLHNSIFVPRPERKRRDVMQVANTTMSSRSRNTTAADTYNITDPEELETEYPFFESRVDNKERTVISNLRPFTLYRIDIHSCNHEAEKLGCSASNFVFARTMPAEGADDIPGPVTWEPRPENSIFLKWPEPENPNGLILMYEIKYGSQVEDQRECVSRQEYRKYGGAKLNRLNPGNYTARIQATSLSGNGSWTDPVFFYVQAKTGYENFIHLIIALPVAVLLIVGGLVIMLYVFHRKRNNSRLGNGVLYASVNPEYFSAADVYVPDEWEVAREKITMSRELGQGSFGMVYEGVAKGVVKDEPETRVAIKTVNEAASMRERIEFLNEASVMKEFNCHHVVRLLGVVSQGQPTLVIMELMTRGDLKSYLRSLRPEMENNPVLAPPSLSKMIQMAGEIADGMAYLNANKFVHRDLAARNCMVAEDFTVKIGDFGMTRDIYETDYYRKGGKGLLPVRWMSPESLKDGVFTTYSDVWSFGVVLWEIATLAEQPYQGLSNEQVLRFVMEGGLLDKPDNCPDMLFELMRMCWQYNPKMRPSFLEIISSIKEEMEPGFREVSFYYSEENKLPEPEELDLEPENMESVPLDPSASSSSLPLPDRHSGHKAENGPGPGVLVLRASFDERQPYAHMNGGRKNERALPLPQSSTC
T2 sequence (P11362 22-822): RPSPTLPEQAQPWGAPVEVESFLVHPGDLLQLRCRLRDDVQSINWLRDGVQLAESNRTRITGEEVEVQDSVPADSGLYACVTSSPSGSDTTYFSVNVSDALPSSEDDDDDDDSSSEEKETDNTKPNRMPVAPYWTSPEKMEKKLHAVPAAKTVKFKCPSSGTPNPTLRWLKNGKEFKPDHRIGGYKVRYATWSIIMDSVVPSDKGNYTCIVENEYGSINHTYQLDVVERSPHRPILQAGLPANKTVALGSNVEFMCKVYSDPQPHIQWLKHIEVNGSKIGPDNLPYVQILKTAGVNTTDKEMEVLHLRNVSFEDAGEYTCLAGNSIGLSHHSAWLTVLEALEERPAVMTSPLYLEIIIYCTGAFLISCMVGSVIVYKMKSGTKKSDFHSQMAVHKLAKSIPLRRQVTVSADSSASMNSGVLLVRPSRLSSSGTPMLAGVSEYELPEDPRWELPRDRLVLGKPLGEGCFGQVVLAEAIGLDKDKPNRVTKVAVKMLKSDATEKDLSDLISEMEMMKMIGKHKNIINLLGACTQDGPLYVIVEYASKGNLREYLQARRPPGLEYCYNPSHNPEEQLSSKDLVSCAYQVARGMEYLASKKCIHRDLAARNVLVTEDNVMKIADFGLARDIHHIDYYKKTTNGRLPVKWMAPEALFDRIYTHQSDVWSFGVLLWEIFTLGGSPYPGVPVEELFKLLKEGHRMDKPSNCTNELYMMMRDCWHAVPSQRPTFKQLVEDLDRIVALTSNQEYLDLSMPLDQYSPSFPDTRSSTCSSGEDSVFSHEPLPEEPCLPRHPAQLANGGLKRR
Sequence of FGFR1 kinase (P11362 22-822): as above

For the compound `COCCCc1cc(Nc2ccnc(NCc3cc(C4CC4)no3)n2)n[nH]1` [Example 18, N-[(3-cyclopropyl-1,2-oxazol-5-yl)methyl]-N′-[5-(3-methoxypropyl)-2H-pyrazol-3-yl]pyrimidine-2,4-diamine], the IC50 at human IGF1R lay within 1000 to 10000 nM.
On to `COCC(C)Oc1cc(Nc2ccnc(NCc3cc(C)no3)n2)n[nH]1` (stereo not drawn) [Example 75, N′-[5-(1-methoxypropan-2-yloxy)-1H-pyrazol-3-yl]-N-[(3-methyl-1,2-oxazol-5-yl)methyl]pyrimidine-2,4-diamine], for which the IC50 on FGFR1 kinase is less than 10000 nM; at human IGF1R, more than 10000 nM.
The corresponding values for `CCOc1ccc(COc2cc(Nc3ccnc(NCc4cc(C)no4)n3)n[nH]2)cc1OC` [Example 99, N′-[5-[(4-ethoxy-3-methoxy-phenyl)methoxy]-1H-pyrazol-3-yl]-N-[(3-methyl1,2-oxazol-5-yl)methyl]pyrimidine-2,4-diamine] are less than 10000 nM and more than 10000 nM.
Take `Cc1cc(CNc2nccc(Nc3cc(CCc4cccc(OC(C)C)c4)[nH]n3)n2)on1` [Example 122, N-[(3-methyl-1,2-oxazol-5-yl)methyl]-N′-[5-[2-(3-propan-2-yloxyphenyl)ethyl]-1H-pyrazol-3-yl]pyrimidine-2,4-diamine]: the IC50 at FGFR1 kinase and on FGFR1 IIIc was less than 1000 nM each time.
Regarding `NC(=O)c1cc(CNc2nccc(Nc3cc(CCc4cccc(OCC5CC5)c4)[nH]n3)n2)on1` [Example 123, 5-[[[4-[[5-[2-[3-(cyclopropylmethoxy)phenyl]ethyl]-1H-pyrazol-3-yl]amino]pyrimidin-2-yl]amino]methyl]-1,2-oxazole-3-carboxamide], the IC50 at FGFR1 kinase was less than 1000 nM; on FGFR1 IIIc it was less than 10000 nM.
The corresponding values for `COc1cc(CCc2cc(Nc3ccnc(NCc4cc(C)no4)n3)n[nH]2)cc(OC)n1` [Example 124, N′-[5-[2-(2,6-dimethoxypyridin-4-yl)ethyl]-1H-pyrazol-3-yl]-N-[(3-methyl-1,2-oxazol-5-yl)methyl]pyrimidine-2,4-diamine] are less than 200 nM and less than 200 nM.
As for `Cc1cc(CNc2nccc(Nc3cc(CCc4cccc(N)c4)[nH]n3)n2)on1` [Example 125, N′-[5-[2-(3-aminophenyl)ethyl]-1H-pyrazol-3-yl]-N-[(3-methyl-1,2-oxazol-5-yl)methyl]pyrimidine-2,4-diamine], the values for the IC50 at FGFR1 kinase and at FGFR1 IIIc were less than 200 nM and less than 1000 nM, respectively.
The corresponding values for `COc1cc(Cl)cc(CCc2cc(Nc3ccnc(NCc4cc(C(N)=O)no4)n3)[nH]n2)c1` [Example 126, 5-[[[4-[[5-[2-(3-chloro-5-methoxy-phenyl)ethyl]-2H-pyrazol-3-yl]amino]pyrimidin-2-yl]amino]methyl]-1,2-oxazole-3-carboxamide] are less than 200 nM and less than 200 nM.
The corresponding values for `COc1cncc(CCc2cc(Nc3ccnc(NCc4cc(CN(C)C)no4)n3)n[nH]2)c1` [Example 127, N-[[3-(dimethylaminomethyl)-1,2-oxazol-5-yl]methyl]-N′-[5-[2-(5-methoxypyridin-3-yl)ethyl]-1H-pyrazol-3-yl]pyrimidine-2,4-diamine] are less than 1000 nM and less than 30000 nM.
The corresponding values for `COc1ccc(CCc2cc(Nc3ccnc(NCc4cc(C)no4)n3)n[nH]2)s1` [Example 129, N′-[5-[2-(5-methoxythiophen-2-yl)ethyl]-1H-pyrazol-3-yl]-N-[(3-methyl-1,2-oxazol-5-yl)methyl]pyrimidine-2,4-diamine] are less than 10000 nM and less than 1000 nM.
For the compound `COc1ncc(CCc2cc(Nc3ccnc(NCc4cc(C)no4)n3)n[nH]2)s1` [Example 130, N′-[5-[2-(2-methoxy-1,3-thiazol-5-yl)ethyl]-1H-pyrazol-3-yl]-N-[(3-methyl-1,2-oxazol-5-yl)methyl]pyrimidine-2,4-diamine], the IC50 was less than 1000 nM at FGFR1 kinase and less than 10000 nM at FGFR1 IIIc.
As for `COc1cc(C)cc(COc2cc(Nc3ccnc(NCc4cc(C)no4)n3)n[nH]2)c1` [Example 131, N′-[5-[(3-methoxy-5-methyl-phenyl)methoxy]-1H-pyrazol-3-yl]-N-[(3-methyl-1,2-oxazol-5-yl)methyl]pyrimidine-2,4-diamine], the IC50 on FGFR1 kinase and at FGFR1 IIIc was less than 200 nM throughout.
For `CNC(=O)c1cc(CCc2cc(Nc3ccnc(NCc4cc(C)no4)n3)n[nH]2)cc(OC)c1` [Example 132, 3-Methoxy-N-methyl-5-[2-[5-[[2-[(3-methyl-1,2-oxazol-5-yl)methylamino]pyrimidin-4-yl]amino]-1H-pyrazol-3-yl]ethyl]benzamide], the IC50 at FGFR1 kinase is less than 200 nM; at FGFR1 IIIc, less than 1000 nM.
For the compound `Cc1cc(CNc2nccc(Nc3cc(CCc4cccc(Oc5ncccn5)c4)[nH]n3)n2)on1` [Example 133, N-[(3-methyl-1,2-oxazol-5-yl)methyl]-N′-[5-[2-(3-pyrimidin-2-yloxyphenyl)ethyl]-1H-pyrazol-3-yl]pyrimidine-2,4-diamine hydrochloride], the IC50 on FGFR1 kinase is less than 200 nM; on FGFR1 IIIc, less than 10000 nM.
The corresponding values for `Cc1cc(CNc2nccc(Nc3cc(CCc4cccc(=O)[nH]4)[nH]n3)n2)on1` [Example 134, 6-[2-[5-[[2-[(3-methyl-1,2-oxazol-5-yl)methylamino]pyrimidin-4-yl]amino]-2H-pyrazol-3-yl]ethyl]-1H-pyridin-2-one dihydrochloride] are less than 10000 nM and less than 30000 nM.
The corresponding values for `COc1cc(COc2cc(Nc3ccnc(NCc4cc(C)no4)n3)n[nH]2)c(F)cn1` [Example 135, N′-[5-[(5-fluoro-2-methoxy-pyridin-4-yl)methoxy]-1H-pyrazol-3-yl]-N-[(3-methyl-1,2-oxazol-5-yl)methyl]pyrimidine-2,4-diamine] are less than 200 nM and less than 1000 nM.
Regarding `COc1cc(CCc2cc(Nc3ccnc(NCc4cc(CN(C)C)no4)n3)n[nH]2)c(F)cn1` [Example 136, N-[[3-(dimethylaminomethyl)-1,2-oxazol-5-yl]methyl]-N′-[5-[2-(5-fluoro-2-methoxy-pyridin-4-yl)ethyl]-1H-pyrazol-3-yl]pyrimidine-2,4-diamine], the IC50 at FGFR1 kinase was less than 1000 nM; at FGFR1 IIIc it was less than 10000 nM.
Turning to `COc1ccnc(COc2cc(Nc3ccnc(NCc4cc(C)no4)n3)n[nH]2)c1` [Example 137, N′-[5-[(4-methoxypyridin-2-yl)methoxy]-1H-pyrazol-3-yl]-N-[(3-methyl-1,2-oxazol-5-yl)methyl]pyrimidine-2,4-diamine], the IC50 at FGFR1 kinase is less than 1000 nM; at FGFR1 IIIc, less than 30000 nM.
The corresponding values for `COc1cncc(CCc2cc(Nc3ccnc(NCc4cc(C)no4)n3)n[nH]2)c1` [Example 138, N′-[5-[2-(5-methoxypyridin-3-yl)ethyl]-1H-pyrazol-3-yl]-N-[(3-methyl-1,2-oxazol-5-yl)methyl]pyrimidine-2,4-diamine] are less than 1000 nM and less than 10000 nM.
With `COc1cc(CCc2cc(Nc3ccnc(NCc4cc(C)no4)n3)n[nH]2)cc(NC(C)=O)c1` [Example 139, N-[3-methoxy-5-[2-[5-[[2-[(3-methyl-1,2-oxazol-5-yl)methylamino]pyrimidin-4-yl]amino]-2H-pyrazol-3-yl]ethyl]phenyl]acetamide], the IC50 at FGFR1 IIIc was less than 30000 nM.
In the case of `CC(C)Oc1cccc(CCc2cc(Nc3ccnc(NCc4cc(C(N)=O)no4)n3)n[nH]2)c1` [Example 140, 5-[[[4-[[5-[2-(3-propan-2-yloxyphenyl)ethyl]-1H-pyrazol-3-yl]amino]pyrimidin-2-yl]amino]methyl]-1,2-oxazole-3-carboxamide], on FGFR1 IIIc, the IC50 was less than 10000 nM.

Source of the values: US20080004302A1, “Novel Compounds” (ASTRAZENECA AB, priority 2006, published 2008).
